Data on one molecule can be found in patent US8188109B2, “Benzoquinolizinium salt derivatives as anticancer agents” (Naxospharma S.r.l., priority 2009, dated 2012).

Read-outs that look alike come from different tables or passages of the source.

Experiment [1] has as its system 2008 cell line (serous cystadenocarcinoma of the ovary). The experiment can be described thus: Cell growth assay (crystal violet dye), 2008 cells. The class given is cell-based, human. To be noted: Homo sapiens; 2008 cells, 72 hrs exposure; read-out: IC50 (cell growth inhibition). Here is the method: (§1) For the determination of the in vitro antitumour activities, the compounds of the invention were assayed in a panel of sensible, resistant and refractary tumour cell lines, which are only exemplary for the antitumour activity of the inventive compounds, and are not to be construed as limiting their antitumour activities only to the cell lines set forth herein. Cell lines. The 2008 cell line was established from a patient with serous cystadenocarcinoma of the ovary and the cDDP-resistant C13* subline, about 15-fold resistant to cDDP, was derived from the parent 2008 cell line by monthly exposure to cDDP, followed by chronic exposure to step-wise increases in cDDP concentration (Cancer Research 52, 1895, 1992). The cell lines were grown as monolayers in RPMI 1640 medium containing 10% heat-inactivated fetal bovine serum and 50 μg/mL gentamycin sulfate. All cell media and serum were purchased from (Lonza, Verviers, Belgium). Cultures were equilibrated with humidified 5% CO2 in air at 37° C. All studies were performed in Mycoplasma negative cells, as routinely determined with the MycoAlert Mycoplasma detection kit (Lonza, Walkersville, Md., USA).
(§2) Cell growth assay. Cell growth was determined by a modification of the crystal violet dye assay (Analytical biochemistry, 182, 16 1989). On selected days, after removal of the tissue culture medium, the cell monolayer was fixed with methanol prior to staining with 0.2% crystal violet solution in 20% methanol for at least 30 minutes. After washing several times with distilled water to remove the dye excess, the cells were let to dry. The incorporated dye was solubilized in acidic isopropanol (1N HCl : 2-propanol, 1:10). After appropriate dilution, dye was determined spectrophotometrically at 540 nm. The extracted dye was proportional to cell number. Percentage of cytotoxicity was calculated by comparing the absorbance of cultures exposed to the compounds of the invention to non-exposed (control) cultures. Percentage of cytotoxicity is here reported as the half maximal inhibitory concentration (IC50), which is a measure of the effectiveness of a compound of the invention in inhibiting cell growth by half with respect to control (100%).

In experiment [2] the test system is cDDP-resistant C13* subline. The experiment can be described thus: Cell growth assay (crystal violet dye), C13* cells. Format: cell-based, human. To be noted: Homo sapiens; C13* cells, 72 hrs exposure; read-out: IC50 (cell growth inhibition). On the procedure:
as §1, §2

Experiment [3] relates to human ovarian cancer cell line A2780. The experiment in a line: Cell growth assay (crystal violet dye), A2780 cells. The class given is cell-based. The settings on record: Homo sapiens, 72 hrs exposure, read-out: IC50 (cell growth inhibition). Here is the method:
(§3) The human ovarian cancer cell line A2780 and a platinum-resistant subline selected in vitro by stepwise increases of cisplatin concentration in the medium were from University of Modena and Reggio Emilia. The cisplatin resistant A2780 cells were challenged weekly with 50 uM cisplatin for 1 hr. Both cell lines were maintained in RPMI 1640 medium with 10% (vol/vol) fetal calf serum, penicillin (62.9 mg/L), and streptomycin (100 mg/L) (GIBCO).
as §2

Experiment [4] deals with cisplatin resistant A2780 cells (A2780/CP). The experiment can be described thus: Cell growth assay (crystal violet dye), A2780/CP cells. To be noted: Homo sapiens, A2780C/P, 72 hrs exposure, read-out: IC50 (cell growth inhibition). The class given is cell-based, human. On the procedure:
as §3, §2

A further experiment deals with HeLa cells. The experiment in a line: Cell proliferation MTT assay, HeLa. The class given is cell-based. The settings on record: Homo sapiens, 24 h, read-out: MTT cell proliferation, percentage compared to control cells considered as 100%; for activity at 1 µM: compound at 1 uM; for activity at 10 µM: compound at 10 uM. Here is the method:
(§4) Cell cultures and treatments. Human tumor cells (HeLa from uterin cervix and HCT116 from colon carcinoma) were grown at 37° C. in humidified atmosphere containing 5% CO2 in D-MEM supplemented with 10% FCS, 4 mM glutamine, 2 mM Na pyruvate, 100 U/mL penicillin and 0.1 mg/mL streptomycin (all reagents were from Celbio, Pero, Italy). HeLa cells are the most widely used human tumor cell line; HCT 116 colon carcinoma cell line has proven to be extremely resistant to conventional chemotherapy. Cells were treated with the compounds of the invention at a fixed dose of 10 uM for 24 h, eventually followed by 24 of recovery in drug free medium. As a positive control of growth inhibition, cells were treated with 10 uM etoposide. Some of the inventive were also assayed at a dose of 1 uM.
(§5) Cell proliferation assays—MTT assay. Cells are seeded in 96 multiwell-plates at the density of 10^3/100 μl (except fibroblasts that are seeded at the density of 1.5×10^3/100 μl). Cells are treated 24 h later with the drug for 24 h eventually followed by 24 h of recovery in drug-free medium. At the end of the treatments, 20 μl of CellTiter 96 Non-Radioactive Cell Proliferation Assay (MTT; Promega, Milano, Italy) are added to each well. Plates are then incubated for 4 h at 37° C. in the dark and analyzed with a reader of microplates (Gio. De Vita, Roma, Italy) at 492 nm. Experiments are performed in quadruplicate and repeated three times. Data are expressed in the following Tables 2a-c as the percentage compared to control cells considered as 100%.
Background: Tetrazolium dyes change colour on reduction, which living cells bring about.

In experiment [5] the test system is HCT 116 colon carcinoma cell line. The experiment can be described thus: Cell proliferation MTT assay, HCT 116. The settings on record: Homo sapiens, HCT-116, 24 h, read-out: MTT cell proliferation, percentage compared to control cells considered as 100%; for activity at 10 µM: HCT 116, compound at 10 uM. The class given is cell-based. Here is the method: as §4, §5

For the next experiment, the system named is tumour cell lines. The experiment in a line: In vitro antitumour activity, panel of tumour cell lines (statement in words). The settings on record: compared with the novel compounds / prior art protoberberines. Format: cell-based, human. Here is the method: as §1
The mark [6] stands for this setting: 24 h + 24 h recovery in drug-free medium.

As to `COc1ccc2c(Cc3ccccc3)c3[n+](cc2c1OC)CCc1cc2c(cc1-3)OCO2.[I-]` [Comp Ex, 13-benzyl-9,10-dimethoxy-5,6-dihydrobenzo[g]-1,3-benzodioxolo[5,6-a]quinolizinium iodide, reference compound], the 50% inhibitory concentration (IC50) (in general, the concentration that inhibits the measured activity by half) is 9.2 µM in experiment [1], 5 µM in experiment [2], 2.5 µM in experiment [3] and 3.3 µM in experiment [4]. For the same molecule, the activity at 1 µM in the experiment with HeLa cells (setting [6]) came out at 93.6%; in the experiment on HeLa cells it was 139%; in experiment [5] (HCT 116, compound at 1 uM, 24 h exposure), 119%. The activity at 10 µM in the experiment on HeLa cells (setting [6]) turned out to be 74.5%; in the experiment on HeLa cells, 98%; in experiment [5] (setting [6]) it was 22.2%; in experiment [5] (24 h), 20.4%. Besides, the “antitumour activity (in words)” value with tumour cell lines is “much lower antitumour activity”.
